Measured values taken from the supplement of paper PMC10307832.

Columns and labels:
Test in all cases: relative viability (nuclei count vs DMSO), 5 days (fraction); higher = more cells survive
A-427 = test system: A-427
In short: (§1)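 Five library-drug doses in √10 steps were combined with a fixed anchor-drug dose, or a single drug was given alone, by pin tool to lung cancer cell lines in 1536-well plates the day after seeding. Nuclei were stained and counted after 5 days. Relative viability is the nuclei count in treated wells over that in vehicle wells, taken as the median of duplicate plates.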

COR-L 105 = test system: COR-L 105
In short: as §1

H3255 = test system: H3255
In short: as §1

HCC-44 = test system: HCC-44
In short: as §1

HCC-827 = test system: HCC-827
In short: as §1

LCLC-103H = test system: LCLC-103H
In short: as §1

LOU-NH91 = test system: LOU-NH91
In short: as §1

LXF-289 = test system: LXF-289
In short: as §1

NCI-H1792 = test system: NCI-H1792
In short: as §1

NCI-H1915 = test system: NCI-H1915
In short: as §1

NCI-H1975 = test system: NCI-H1975
In short: as §1

NCI-H1993 = test system: NCI-H1993
In short: as §1

NCI-H2023 = test system: NCI-H2023
In short: as §1

NCI-H2087 = test system: NCI-H2087
In short: as §1

NCI-H520 = test system: NCI-H520
In short: as §1

SW 1573 = test system: SW 1573
In short: as §1

**Q.** With CCNC(=O)c1noc(-c2cc(C(C)C)c(O)cc2O)c1-c1ccc(CN2CCOCC2)cc1 [Luminespib] + CC(C)C[C@H](NC(=O)[C@H](Cc1ccccc1)NC(=O)c1cnccn1)B(O)O [Bortezomib] (partner 0.002 µM) as the compound, how does the relative viability (A-427; first compound 0.002 µM) read?
**A.** 1.04

**Q.** And the relative viability (A-427; first compound 0.006325 µM)?
**A.** 0.926

**Q.** And the relative viability (A-427; first compound 0.02 µM)?
**A.** 0.811

**Q.** What about the relative viability (A-427; first compound 0.06325 µM) of the same compound?
**A.** 0.94

**Q.** And the relative viability (A-427; first compound 0.2 µM)?
**A.** 0.584

**Q.** What about the relative viability (COR-L 105; first compound 0.002 µM) of the same compound?
**A.** 0.992

**Q.** And the relative viability (COR-L 105; first compound 0.006325 µM)?
**A.** 0.75

**Q.** What about the relative viability (COR-L 105; first compound 0.02 µM) of the same compound?
**A.** 0.342

**Q.** What about the relative viability (COR-L 105; first compound 0.06325 µM) of the same compound?
**A.** 0.176

**Q.** What about the relative viability (COR-L 105; first compound 0.2 µM) of the same compound?
**A.** 0.206

**Q.** And the relative viability (H3255; first compound 0.002 µM)?
**A.** 0.615

**Q.** What about the relative viability (H3255; first compound 0.006325 µM) of the same compound?
**A.** 0.466

**Q.** And the relative viability (H3255; first compound 0.02 µM)?
**A.** 0.472

**Q.** And the relative viability (H3255; first compound 0.06325 µM)?
**A.** 0.376

**Q.** And the relative viability (H3255; first compound 0.2 µM)?
**A.** 0.194

**Q.** And the relative viability (HCC-44; first compound 0.002 µM)?
**A.** 0.895

**Q.** What about the relative viability (HCC-44; first compound 0.006325 µM) of the same compound?
**A.** 0.881

**Q.** What about the relative viability (HCC-44; first compound 0.02 µM) of the same compound?
**A.** 1.09

**Q.** What about the relative viability (HCC-44; first compound 0.06325 µM) of the same compound?
**A.** 0.139

**Q.** And the relative viability (HCC-44; first compound 0.2 µM)?
**A.** 0.145

**Q.** And the relative viability (HCC-827; first compound 0.002 µM)?
**A.** 1.04

**Q.** And the relative viability (HCC-827; first compound 0.006325 µM)?
**A.** 0.999

**Q.** What about the relative viability (HCC-827; first compound 0.02 µM) of the same compound?
**A.** 1.11

**Q.** And the relative viability (HCC-827; first compound 0.06325 µM)?
**A.** 1.22

**Q.** And the relative viability (HCC-827; first compound 0.2 µM)?
**A.** 0.66

**Q.** What about the relative viability (LCLC-103H; first compound 0.002 µM) of the same compound?
**A.** 1.07

**Q.** What about the relative viability (LCLC-103H; first compound 0.006325 µM) of the same compound?
**A.** 1.01

**Q.** And the relative viability (LCLC-103H; first compound 0.02 µM)?
**A.** 0.931

**Q.** And the relative viability (LCLC-103H; first compound 0.06325 µM)?
**A.** 1

**Q.** What about the relative viability (LCLC-103H; first compound 0.2 µM) of the same compound?
**A.** 0.676

**Q.** What about the relative viability (LOU-NH91; first compound 0.002 µM) of the same compound?
**A.** 0.513

**Q.** And the relative viability (LOU-NH91; first compound 0.006325 µM)?
**A.** 0.484

**Q.** What about the relative viability (LOU-NH91; first compound 0.02 µM) of the same compound?
**A.** 0.518

**Q.** And the relative viability (LOU-NH91; first compound 0.06325 µM)?
**A.** 0.451

**Q.** What about the relative viability (LOU-NH91; first compound 0.2 µM) of the same compound?
**A.** 0.389

**Q.** What about the relative viability (LXF-289; first compound 0.002 µM) of the same compound?
**A.** 0.969

**Q.** And the relative viability (LXF-289; first compound 0.006325 µM)?
**A.** 0.951

**Q.** What about the relative viability (LXF-289; first compound 0.02 µM) of the same compound?
**A.** 1.04

**Q.** And the relative viability (LXF-289; first compound 0.06325 µM)?
**A.** 0.373

**Q.** And the relative viability (LXF-289; first compound 0.2 µM)?
**A.** 0.105

**Q.** What about the relative viability (NCI-H1792; first compound 0.002 µM) of the same compound?
**A.** 0.93

**Q.** And the relative viability (NCI-H1792; first compound 0.006325 µM)?
**A.** 0.888

**Q.** And the relative viability (NCI-H1792; first compound 0.02 µM)?
**A.** 0.633

**Q.** And the relative viability (NCI-H1792; first compound 0.06325 µM)?
**A.** 0.478

**Q.** And the relative viability (NCI-H1792; first compound 0.2 µM)?
**A.** 0.36

**Q.** And the relative viability (NCI-H1915; first compound 0.002 µM)?
**A.** 0.976

**Q.** What about the relative viability (NCI-H1915; first compound 0.006325 µM) of the same compound?
**A.** 0.995

**Q.** What about the relative viability (NCI-H1915; first compound 0.02 µM) of the same compound?
**A.** 1.02

**Q.** What about the relative viability (NCI-H1915; first compound 0.06325 µM) of the same compound?
**A.** 0.942

**Q.** And the relative viability (NCI-H1915; first compound 0.2 µM)?
**A.** 0.442

**Q.** What about the relative viability (NCI-H1975; first compound 0.002 µM) of the same compound?
**A.** 0.444

**Q.** And the relative viability (NCI-H1975; first compound 0.006325 µM)?
**A.** 0.389

**Q.** And the relative viability (NCI-H1975; first compound 0.02 µM)?
**A.** 0.219

**Q.** What about the relative viability (NCI-H1975; first compound 0.06325 µM) of the same compound?
**A.** 0.149

**Q.** What about the relative viability (NCI-H1975; first compound 0.2 µM) of the same compound?
**A.** 0.119

**Q.** And the relative viability (NCI-H1993; first compound 0.002 µM)?
**A.** 0.998

**Q.** And the relative viability (NCI-H1993; first compound 0.006325 µM)?
**A.** 1.12

**Q.** And the relative viability (NCI-H1993; first compound 0.02 µM)?
**A.** 0.68

**Q.** And the relative viability (NCI-H1993; first compound 0.06325 µM)?
**A.** 0.816

**Q.** What about the relative viability (NCI-H1993; first compound 0.2 µM) of the same compound?
**A.** 0.374

**Q.** What about the relative viability (NCI-H2023; first compound 0.002 µM) of the same compound?
**A.** 1.04

**Q.** What about the relative viability (NCI-H2023; first compound 0.006325 µM) of the same compound?
**A.** 0.958

**Q.** And the relative viability (NCI-H2023; first compound 0.02 µM)?
**A.** 0.29

**Q.** What about the relative viability (NCI-H2023; first compound 0.06325 µM) of the same compound?
**A.** 0.069

**Q.** And the relative viability (NCI-H2023; first compound 0.2 µM)?
**A.** 0.0759

**Q.** And the relative viability (NCI-H2087; first compound 0.002 µM)?
**A.** 1.03

**Q.** What about the relative viability (NCI-H2087; first compound 0.006325 µM) of the same compound?
**A.** 0.676

**Q.** What about the relative viability (NCI-H2087; first compound 0.02 µM) of the same compound?
**A.** 0.796

**Q.** What about the relative viability (NCI-H2087; first compound 0.06325 µM) of the same compound?
**A.** 0.141

**Q.** What about the relative viability (NCI-H2087; first compound 0.2 µM) of the same compound?
**A.** 0.142

**Q.** And the relative viability (NCI-H520; first compound 0.002 µM)?
**A.** 0.556

**Q.** What about the relative viability (NCI-H520; first compound 0.006325 µM) of the same compound?
**A.** 0.51

**Q.** What about the relative viability (NCI-H520; first compound 0.02 µM) of the same compound?
**A.** 0.41

**Q.** And the relative viability (NCI-H520; first compound 0.06325 µM)?
**A.** 0.103

**Q.** What about the relative viability (NCI-H520; first compound 0.2 µM) of the same compound?
**A.** 0.109

**Q.** What about the relative viability (SW 1573; first compound 0.002 µM) of the same compound?
**A.** 1.07

**Q.** And the relative viability (SW 1573; first compound 0.006325 µM)?
**A.** 0.941

**Q.** What about the relative viability (SW 1573; first compound 0.02 µM) of the same compound?
**A.** 0.96

**Q.** What about the relative viability (SW 1573; first compound 0.06325 µM) of the same compound?
**A.** 0.117

**Q.** What about the relative viability (SW 1573; first compound 0.2 µM) of the same compound?
**A.** 0.114
